Test results as given in ChEMBL document CHEMBL1649540, “The novel CXCR4 antagonist KRH-3955 is an orally bioavailable and extremely potent inhibitor of human immunodeficiency virus type 1 infection: comparative studies with AMD3100” (Antimicrob Agents Chemother, 2009).
The source made the active and inactive calls. No cut-off for these calls is given here.

How the values were obtained:
[1] = tested on: Human immunodeficiency virus 1; experiment: Antiviral activity against HIV1 NL4-3 infected in human PBMC assessed as inhibition of viral p24 antigen production after 7 to 10 days by ELISA; assay type: functional, organism-based; details: Human immunodeficiency virus 1, NL4-3
[2] = tested on: Human immunodeficiency virus 1; experiment: Antiviral activity against HIV1 89.6 infected in human PBMC assessed as inhibition of viral p24 antigen production after 7 to 10 days by ELISA; assay type: functional, organism-based; details: Human immunodeficiency virus 1, 89.6
[3] = tested on: Human immunodeficiency virus 1; experiment: Antiviral activity against HIV1 R5 infected in human PBMC assessed as inhibition of viral p24 antigen production after 7 to 10 days by ELISA; assay type: functional, organism-based; details: Human immunodeficiency virus 1, R5
[4] = tested on: Human immunodeficiency virus 1; experiment: Antiviral activity against HIV1 A018H infected in human PBMC assessed as inhibition of viral p24 antigen production after 7 to 10 days by ELISA; assay type: functional, organism-based; details: Human immunodeficiency virus 1, A018H
[5] = tested on: Human immunodeficiency virus 1; experiment: Antiviral activity against HIV1 NL4-3 infected in HEK293 cells assessed as inhibition of viral replication after 2 days; assay type: functional, organism-based; details: Human immunodeficiency virus 1, NL4-3, HEK293, 48 h
[6] = tested on: Human immunodeficiency virus 1; experiment: Antiviral activity against HIV1 HXB2 infected in HEK293 cells assessed as inhibition of viral replication after 2 days; assay type: functional, organism-based; details: Human immunodeficiency virus 1, HXB2, HEK293, 48 h
[7] = tested on: Human immunodeficiency virus 1; experiment: Antiviral activity against NRTI-resistant HIV1 HXB2 infected in HEK293 cells assessed as inhibition of viral replication after 2 days; assay type: functional, organism-based; details: Human immunodeficiency virus 1, HXB2, HEK293, 48 h
[8] = tested on: Human immunodeficiency virus 1; experiment: Antiviral activity against PI-resistant HIV1 HXB2 infected in HEK293 cells assessed as inhibition of viral replication after 2 days; assay type: functional, organism-based; details: Human immunodeficiency virus 1, HXB2, HEK293, 48 h
[9] = target: T1, C-X-C chemokine receptor type 4 (Homo sapiens, UniProt P61073); experiment: Displacement of [125I]SDF-1alpha form CXCR4 expressed in CHO cells by scintillation counting; assay type: cell-based
T1 sequence (P61073 whole entry): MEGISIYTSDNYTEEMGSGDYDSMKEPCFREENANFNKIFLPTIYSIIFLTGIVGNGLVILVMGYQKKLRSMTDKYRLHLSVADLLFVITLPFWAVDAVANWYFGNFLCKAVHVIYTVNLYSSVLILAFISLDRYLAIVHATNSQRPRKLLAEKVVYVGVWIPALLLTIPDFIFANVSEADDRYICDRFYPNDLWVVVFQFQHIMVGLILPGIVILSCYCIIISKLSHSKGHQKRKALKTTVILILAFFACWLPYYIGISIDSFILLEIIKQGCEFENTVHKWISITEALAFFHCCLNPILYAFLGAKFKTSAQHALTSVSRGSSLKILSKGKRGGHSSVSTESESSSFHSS

[10] = target: T1, C-X-C chemokine receptor type 4; experiment: Displacement of [125I]SDF-1alpha form CXCR4 expressed in human MOLT4 cells by scintillation counting; assay type: cell-based; details: MOLT-4
[11] = tested on: Human immunodeficiency virus 1; experiment: Antiviral activity against multidrug resistant HIV1 HXB2 infected in HEK293 cells assessed as inhibition of viral replication after 2 days; assay type: functional, organism-based; details: Human immunodeficiency virus 1, HXB2, HEK293, 48 h
[12] = tested on: Human immunodeficiency virus 1; experiment: Antiviral activity against T20-resistant HIV1 NL4-3 infected in HEK293 cells assessed as inhibition of viral replication after 2 days; assay type: functional, organism-based; details: Human immunodeficiency virus 1, NL4-3, HEK293, 48 h
[13] = target: C-C chemokine receptor type 4 (Homo sapiens) (UniProt P51679); experiment: Displacement of [125I]TARC form CCR4 expressed in CHO cells by scintillation counting; assay type: cell-based
C-C chemokine receptor type 4 (Homo sapiens), sequence (P51679 whole entry): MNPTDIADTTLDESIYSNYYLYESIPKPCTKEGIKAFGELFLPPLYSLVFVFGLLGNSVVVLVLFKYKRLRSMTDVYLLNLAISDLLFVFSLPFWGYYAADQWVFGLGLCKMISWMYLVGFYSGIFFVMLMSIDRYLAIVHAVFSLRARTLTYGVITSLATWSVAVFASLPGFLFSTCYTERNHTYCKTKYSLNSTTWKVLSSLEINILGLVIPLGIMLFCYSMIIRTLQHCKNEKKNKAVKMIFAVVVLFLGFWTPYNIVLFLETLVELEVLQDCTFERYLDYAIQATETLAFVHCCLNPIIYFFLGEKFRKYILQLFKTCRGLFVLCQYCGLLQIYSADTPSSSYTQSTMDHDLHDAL

[14] = target: C-C chemokine receptor type 5 (Homo sapiens) (UniProt P51681); experiment: Displacement of [125I]RANTES form CCR5 expressed in CHO cells by scintillation counting; assay type: cell-based
C-C chemokine receptor type 5 (Homo sapiens), sequence (P51681 whole entry, looked up): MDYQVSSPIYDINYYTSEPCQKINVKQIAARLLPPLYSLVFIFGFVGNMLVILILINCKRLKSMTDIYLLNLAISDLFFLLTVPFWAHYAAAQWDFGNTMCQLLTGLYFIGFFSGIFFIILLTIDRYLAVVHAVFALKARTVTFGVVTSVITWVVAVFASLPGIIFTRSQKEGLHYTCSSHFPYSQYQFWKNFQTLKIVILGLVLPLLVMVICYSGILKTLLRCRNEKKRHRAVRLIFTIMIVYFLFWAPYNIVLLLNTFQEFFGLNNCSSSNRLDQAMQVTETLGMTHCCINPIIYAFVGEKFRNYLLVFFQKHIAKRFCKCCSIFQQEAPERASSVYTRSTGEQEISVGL

[15] = target: C-X-C chemokine receptor type 1 (Homo sapiens) (UniProt P25024); experiment: Displacement of [125I]IL8 form CXCR1 expressed in CHO cells by scintillation counting; assay type: cell-based
C-X-C chemokine receptor type 1 (Homo sapiens), sequence (P25024 whole entry): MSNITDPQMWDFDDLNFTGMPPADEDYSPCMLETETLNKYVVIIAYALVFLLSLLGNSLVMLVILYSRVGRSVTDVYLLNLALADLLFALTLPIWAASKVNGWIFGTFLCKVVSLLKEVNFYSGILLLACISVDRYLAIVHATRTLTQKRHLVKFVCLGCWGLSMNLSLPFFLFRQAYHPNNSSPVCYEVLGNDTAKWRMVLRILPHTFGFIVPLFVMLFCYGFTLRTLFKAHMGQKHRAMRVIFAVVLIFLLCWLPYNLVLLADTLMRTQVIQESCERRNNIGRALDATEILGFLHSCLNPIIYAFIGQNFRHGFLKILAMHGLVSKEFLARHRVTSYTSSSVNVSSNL

[16] = target: T1, C-X-C chemokine receptor type 4; experiment: Antagonist activity at CXCR4 expressed in CHO cells assessed as inhibition of SDF1-alpha-induced calcium mobilization by fluorescence assay; assay type: functional, cell-based
[17] = target: T1, C-X-C chemokine receptor type 4; experiment: Inhibition of Mab A80 binding to CXCR4 expressed in human MOLT4 cells by FACS analysis; assay type: cell-based; details: MOLT-4
[18] = target: T1, C-X-C chemokine receptor type 4; experiment: Inhibition of Mab 12G5 binding to CXCR4 expressed in human MOLT4 cells at 10 nM by FACS analysis; assay type: cell-based; details: MOLT-4
[19] = target: T1, C-X-C chemokine receptor type 4; experiment: Inhibition of Mab 12G5 binding to CXCR4 expressed in human MOLT4 cells at 10 nM measured post drug washout by FACS analysis; assay type: cell-based; details: MOLT-4
[20] = target: T1, C-X-C chemokine receptor type 4; experiment: Inhibition of Mab 12G5 binding to CXCR4 expressed in human MOLT4 cells at 10 nM measured after 6 hrs post drug washout by FACS analysis; assay type: cell-based; details: MOLT-4
[21] = Oral bioavailability in Sprague-Dawley rat at 10 mg/kg administered as single dose; assay type: ADME, organism-based; details: in vivo
[22] = Clearance in Sprague-Dawley rat at 10 mg/kg, iv administered as single dose; assay type: ADME, organism-based; set-up: dose 10 mg/kg, route intravenous; details: in vivo
[23] = Volume of distribution at steady state in Sprague-Dawley rat at 10 mg/kg, iv administered as single dose; assay type: ADME, organism-based; set-up: dose 10 mg/kg, route intravenous; details: in vivo
[24] = AUC (0 to 336 hrs) in Sprague-Dawley rat at 10 mg/kg, po administered as single dose; assay type: ADME, organism-based; set-up: time < 336 hr, dose 10 mg/kg, route oral; details: plasma
[25] = target: T1, C-X-C chemokine receptor type 4; experiment: Inhibition of Mab 12G5 binding to wild type CXCR4 expressed in HEK293 cells; assay type: cell-based
[26] = tested on: C-X-C chemokine receptor type 4 (Homo sapiens), P61073 [V112A]; experiment: (§1) Inhibition of Mab 12G5 binding to CXCR4 V112A mutant expressed in HEK293 cells; assay type: cell-based
C-X-C chemokine receptor type 4 (Homo sapiens), P61073 [V112A], sequence (P61073 whole entry V112A): as the sequence (P61073 whole entry) above, with V112A counted along it

[27] = target: C-X-C chemokine receptor type 4 (Homo sapiens, UniProt P61073, V112A); experiment: as §1; assay type: cell-based
C-X-C chemokine receptor type 4 (Homo sapiens, UniProt P61073, V112A), sequence (P61073 whole entry V112A): as the sequence (P61073 whole entry) above, with V112A counted along it

[28] = tested on: C-X-C chemokine receptor type 4 (Homo sapiens), P61073 [D181A]; experiment: (§2) Inhibition of Mab 12G5 binding to CXCR4 D181A mutant expressed in HEK293 cells; assay type: cell-based
C-X-C chemokine receptor type 4 (Homo sapiens), P61073 [D181A], sequence (P61073 whole entry D181A): as the sequence (P61073 whole entry) above, with D181A counted along it

[29] = target: C-X-C chemokine receptor type 4 (Homo sapiens, UniProt P61073, D181A); experiment: as §2; assay type: cell-based
C-X-C chemokine receptor type 4 (Homo sapiens, UniProt P61073, D181A), sequence (P61073 whole entry D181A): as the sequence (P61073 whole entry) above, with D181A counted along it

[30] = tested on: C-X-C chemokine receptor type 4 (Homo sapiens), P61073 [E275A]; experiment: (§3) Inhibition of Mab 12G5 binding to CXCR4 E275A mutant expressed in HEK293 cells; assay type: cell-based
C-X-C chemokine receptor type 4 (Homo sapiens), P61073 [E275A], sequence (P61073 whole entry E275A): as the sequence (P61073 whole entry) above, with E275A counted along it

[31] = target: C-X-C chemokine receptor type 4 (Homo sapiens, UniProt P61073, E275A); experiment: as §3; assay type: cell-based
C-X-C chemokine receptor type 4 (Homo sapiens, UniProt P61073, E275A), sequence (P61073 whole entry E275A): as the sequence (P61073 whole entry) above, with E275A counted along it

[32] = tested on: C-X-C chemokine receptor type 4 (Homo sapiens), P61073 [H281A]; experiment: (§4) Inhibition of Mab 12G5 binding to CXCR4 H281A mutant expressed in HEK293 cells; assay type: cell-based
C-X-C chemokine receptor type 4 (Homo sapiens), P61073 [H281A], sequence (P61073 whole entry H281A): as the sequence (P61073 whole entry) above, with H281A counted along it

[33] = target: C-X-C chemokine receptor type 4 (Homo sapiens, UniProt P61073, H281A); experiment: as §4; assay type: cell-based
C-X-C chemokine receptor type 4 (Homo sapiens, UniProt P61073, H281A), sequence (P61073 whole entry H281A): as the sequence (P61073 whole entry) above, with H281A counted along it

[34] = tested on: C-X-C chemokine receptor type 4 (Homo sapiens), P61073 [I284A]; experiment: (§5) Inhibition of Mab 12G5 binding to CXCR4 I284A mutant expressed in HEK293 cells; assay type: cell-based
C-X-C chemokine receptor type 4 (Homo sapiens), P61073 [I284A], sequence (P61073 whole entry I284A): as the sequence (P61073 whole entry) above, with I284A counted along it

[35] = target: C-X-C chemokine receptor type 4 (Homo sapiens, UniProt P61073, I284A); experiment: as §5; assay type: cell-based
C-X-C chemokine receptor type 4 (Homo sapiens, UniProt P61073, I284A), sequence (P61073 whole entry I284A): as the sequence (P61073 whole entry) above, with I284A counted along it

[36] = target: C-X-C chemokine receptor type 4 (Homo sapiens, UniProt P61073, D171A)
C-X-C chemokine receptor type 4 (Homo sapiens, UniProt P61073, D171A), sequence (P61073 whole entry D171A): as the sequence (P61073 whole entry) above, with D171A counted along it

[37] = tested on: C-X-C chemokine receptor type 4 (Homo sapiens), P61073 [E277A]; details: HEK293
C-X-C chemokine receptor type 4 (Homo sapiens), P61073 [E277A], sequence (P61073 whole entry E277A): as the sequence (P61073 whole entry) above, with E277A counted along it

[38] = tested on: C-X-C chemokine receptor type 4 (Homo sapiens), P61073 [W283A]; details: HEK293
C-X-C chemokine receptor type 4 (Homo sapiens), P61073 [W283A], sequence (P61073 whole entry W283A): as the sequence (P61073 whole entry) above, with W283A counted along it

[39] = tested on: C-X-C chemokine receptor type 4 (Homo sapiens), P61073 [E288A,L290A]; details: HEK293
C-X-C chemokine receptor type 4 (Homo sapiens), P61073 [E288A,L290A], sequence (P61073 whole entry E288A/L290A): as the sequence (P61073 whole entry) above, with E288A, L290A counted along it

With `CCCN(CCC)CCCCN(C)Cc1ccc(CN(Cc2ncc[nH]2)Cc2nccn2C)cc1.O=C(O)C(O)C(O)C(=O)O` the EC50 [1] was 1.1 nM, the EC50 [2] was 0.38 nM and the EC50 [3] was greater than 200 nM. The EC50 [4] was 1.4 nM, the IC50 [5] was 0.5 nM and the IC50 [6] was 0.6 nM. For the same compound, the IC50 [7] was 0.6 nM, the IC50 [8] was 0.7 nM and the Activity [9] was “Dose-dependent effect”. The IC50 [9] was 0.61 nM, the Activity [10] was “Active” and the IC50 [11] was 0.7 nM. For the same compound, the IC50 [12] was 0.4 nM, the Activity [13] was “inactive” and the Activity [14] was “inactive”. For the same compound, the Activity [15] was “inactive”, the inhibition [16] was “Dose-dependent effect” and the inhibition [17] was “Dose-dependent effect”. For the same compound, the inhibition [18] was “Active”, the inhibition [19] was “Active” and the inhibition [20] was 40%. It also gave a bioavailability [21] of 25.6%, a clearance [22] of 65 mL/min/kg and a Vd [23] of 374 L/kg. The AUC(0-t) at 336 h [24] was 325 ng·h/mL, the IC50 [25] was 2.8 nM and the IC90 [25] was 8.2 nM. The IC90 [26] was greater than 10 nM, the IC50 [27] was 2.2 nM and the IC90 [28] was 5.1 nM. It also gave an IC50 [29] of 0.5 nM, an IC90 [30] of 6.4 nM and an IC50 [31] of 1 nM. For the same compound, the IC90 [32] was 248 nM, the IC50 [33] was 14.1 nM and the IC90 [34] was 6.8 nM. For the same compound, the IC50 [35] was 1.2 nM, the IC50 [36] was 3.2 nM and the IC90 [37] was 8.7 nM. It also gave an IC90 [38] of 6.9 nM and an IC90 [39] of 7.7 nM.
